According to patent publication US20240368104A1, “Novel Dialkoxynaphtho[2,3-C]Furan-1(3H)-One Derivatives and Pharmaceutical Composition For Preventing or Treating Respiratory Disease or SARS-COV-2 Infection Disease, Comprising Same” (priority 2021, published 2024):
pIC50: −log10 of the molar value. Read-outs that look alike come from different tables or passages of the source.

Columns and labels:
SARS-COV-2 = assay: microbe, parasite or virus in culture; format: cell-based; set-up: SI (Selectivity Index, CC50/IC50): unit not given here; conditions: for SI (Selectivity Index, CC50/IC50): SARS-COV-2, values >50 assumed to be 50; for pIC50: read-out: SARS-COV-2 inhibition (IC50)
in vitro = conditions: African green monkey
[1] = Severe acute respiratory syndrome coronavirus 2, Vero cells, 24 hours infection
[2] = Severe acute respiratory syndrome coronavirus 2, Vero, 24 h

| Structure (SMILES) | SI (Selectivity Index, CC50/IC50) (SARS-COV-2) | pIC50 (SARS-COV-2; [1]) | CC50 (in vitro) [µM] | pIC50 (SARS-COV-2; [2]) |
| --- | --- | --- | --- | --- |
| COc1cc2cc3c(c(-c4ccc(N5CCSCC5)nc4)c2cc1OC)C(=O)OC3 [Example 10, 6,7-dimethoxy-9-(6-thiomorpholinopyridin-3-yl)naphtho[2,3-c]furan-1(3H)-one] | 91.58 | 6.26 | > 50 |  |
| COc1cc2cc3c(c(-c4ccc(N(C)c5ccc(S)cc5)nc4)c2cc1OC)C(=O)OC3.Cl [Example 239, 9-(6-((4-mercaptophenyl)(methyl)amino)pyridin-3-yl)-6,7-dimethoxynaphtho[2,3-c]furan-1(3H)-one] | 1.00 |  | > 50 | < 4.30 |
| COc1cc2cc3c(c(-c4ccc5c(c4)CN(C)CC5)c2cc1OC)C(=O)OC3 [Example 190, 6,7-dimethoxy-9-(2-methyl-1,2,3,4-tetrahydroisoquinolin-7-yl)naphtho[2,3-c]furan-1(3H)-one] | 1.73 | 4.54 | > 50 |  |
| CCN(CCO)c1ncc(-c2c3c(cc4cc(OC)c(OC)cc24)COC3=O)cn1.Cl [Example 81, 9-(2-(ethyl(2-hydroxyethyl)amino)pyrimidin-5-yl)-6,7-dimethoxynaphtho[2,3-c]furan-1(3H)-one hydrochloride] | 2.43 |  | > 50 | 4.69 |
| COc1cc2cc3c(c(-c4cccc5ncccc45)c2cc1OC)C(=O)OC3 [Example 132, 6,7-dimethoxy-9-(quinolin-5-yl)naphtho[2,3-c]furan-1(3H)-one] | 1.0 | < 4.30 | > 50 |  |
| COc1cc2cc3c(c(-c4cnc(N(C)CC5CC5)nc4)c2cc1OC)C(=O)OC3 [Example 68, 9-(2-((cyclopropylmethyl)(methyl)amino)pyrimidin-5-yl)-6,7-dimethoxynaphtho[2,3-c]furan-1(3H)-one] | 270.89 | 6.74 | > 50 |  |
| COc1cc2cc3c(c(-c4ccc(N(C)c5ccc(C#N)cc5)nc4)c2cc1OC)C(=O)OC3.Cl [Example 218, 4-((5-(6,7-dimethoxy-3-oxo-1,3-dihydronaphtho[2,3-c]furan-4-yl)pyridin-2-yl)(methyl)amino)benzonitrile] | 65.75 |  | > 50 | 6.12 |
| CCN(C)c1ccc(-c2c3c(cc4cc(OC)c(OC)cc24)COC3=O)cc1 [Example 248, 9-(4-(ethyl(methyl)amino)phenyl)-6,7-dimethoxynaphtho[2,3-c]furan-1(3H)-one] | 344.5 | > 7.01 | > 50 |  |
| CCN(c1ccc(-c2c3c(cc4cc(OC)c(OC)cc24)COC3=O)cn1)c1ncn(CC)n1 [Example 207, 9-(6-(ethyl(1-ethyl-1H-1,2,4-triazol-3-yl)amino)pyridin-3-yl)-6,7-dimethoxynaphtho[2,3-c]furan-1(3H)-one] | 7.57 | 5.18 | > 50 |  |
| CCN(Cc1ccccc1C(F)(F)F)c1ccc(-c2c3c(cc4cc(OC)c(OC)cc24)COC3=O)cn1 [Example 209, 9-(6-(ethyl(2-(trifluoromethyl)benzyl)amino)pyridin-3-yl)-6,7-dimethoxynaphtho[2,3-c]furan-1(3H)-one] | 14.52 | 5.46 | > 50 |  |
| COc1cc2cc3c(c(-c4ccc5nccc(O)c5c4)c2cc1OC)C(=O)OC3 [Example 117, 9-(4-hydroxyquinolin-6-yl)-6,7-dimethoxynaphtho[2,3-c]furan-1(3H)-one] | 1.0 | < 4.30 | > 50 |  |
| COc1cc2cc3c(c(-c4ccc(N5CCC(N(C)C)CC5)nc4)c2cc1OC)C(=O)OC3.Cl [Example 238, 9-(6-(4-(dimethylamino)piperidin-1-yl)pyridin-3-yl)-6,7-dimethoxynaphtho[2,3-c]furan-1(3H)-one] | 2.84 |  | > 50 | 4.75 |
| COc1cc2cc3c(c(-c4ccc(N(C)C(=O)C(C)(C)C)nc4)c2cc1OC)C(=O)OC3 [Example 233, N-(5-(6,7-dimethoxy-3-oxo-1,3-dihydronaphtho[2,3-c]furan-4-yl)pyridin-2-yl)-N-methylpivalamide] | 1.00 | < 4.30 | > 50 |  |
| COc1cc2cc3c(c(-c4cc5c(cc4OP(=O)(NCCN4CCOCC4)Oc4ccccc4)OCO5)c2cc1OC)C(=O)OC3 (stereo not drawn) [Example 279, 6-(6,7-dimethoxy-3-oxo-1,3-dihydronaphtho[2,3-c]furan-4-yl)benzo[d][1,3]dioxol-5-yl phenyl (2-morpholinoethyl)phosphoramidate] | 8.21 |  | > 50 | 5.22 |
| COc1cc2cc3c(c(-c4ccc(N(C)c5ncn(C)n5)nc4)c2cc1OC)C(=O)OC3 [Example 206, 6,7-dimethoxy-9-(6-(methyl(1-methyl-1H-1,2,4-triazol-3-yl)amino)pyridin-3-yl)naphtho[2,3-c]furan-1(3H)-one] | 2.79 | 4.75 | > 50 |  |
| COc1cc2cc3c(c(-c4cc5c(cc4OC(=O)OC4CCCCC4)OCO5)c2cc1OC)C(=O)OC3 [Example 99, cyclohexyl (6-(6,7-dimethoxy-3-oxo-1,3-dihydronaphtho[2,3-c]furan-4-yl)benzo[d][1,3]dioxol-5-yl)carbonate] | 8.70 | 5.24 | > 50 |  |
| COc1cc2cc3c(c(-c4ccc5[nH]ccc5c4)c2cc1OC)C(=O)OC3 [Example 34, 9-(1H-indol-5-yl)-6,7-dimethoxynaphtho[2,3-c]furan-1(3H)-one] | 12.40 | 5.39 | > 50 |  |
| COc1cc2cc3c(c(-c4cnc(Cl)c(N(C)C)c4)c2cc1OC)C(=O)OC3 [Example 201, 9-(6-chloro-5-(dimethylamino)pyridin-3-yl)-6,7-dimethoxynaphtho[2,3-c]furan-1(3H)-one] | 39.52 | 5.90 | > 50 |  |
| COc1cc2c(OC)c3c(c(-c4ccc(-n5cc(C#N)c(N(C)C)n5)nc4)c2cc1OC)COC3=O [Example 264, 3-(dimethylamino)-1-(5-(6,7,9-trimethoxy-1-oxo-1,3-dihydronaphtho[2,3-c]furan-4-yl)pyridin-2-yl)-1H-pyrazol-4-carbonitrile] | 1.00 | < 4.30 | > 50 |  |
| CCCCCCCCN(CCCCCCCC)c1ncc(-c2c3c(cc4cc(OC)c(OC)cc24)COC3=O)cn1.Cl [Example 95, 9-(2-(dioctylamino)pyrimidin-5-yl)-6,7-dimethoxynaphtho[2,3-c]furan-1(3H)-one hydrochloride] | 1.00 |  | > 50 | < 4.30 |
| COc1cc2cc3c(c(-c4cnc(N5CCC[C@@H]5CO)nc4)c2cc1OC)C(=O)OC3.Cl [Example 82, (R)-9-(2-(2-(hydroxymethyl)pyrrolidin-1-yl)pyrimidin-5-yl)-6,7-dimethoxynaphtho[2,3-c]furan-1(3H)-one hydrochloride] | 3.93 |  | > 50 | 4.90 |
| CCN(CC)CCNc1c2c(cc3cc(OC)c(OC)cc13)COC2=O [Example 6, 9-((2-(diethylamino)ethyl)amino)-6,7-dimethoxynaphtho[2,3-c]furan-1(3H)-one] | 1.00 | < 4.30 | > 50 |  |
| CCN(c1ccc(-c2c3c(cc4cc(OC)c(OC)cc24)COC3=O)cn1)C1CCCC1 [Example 191, 9-(6-(cyclopentyl(ethyl)amino)pyridin-3-yl)-6,7-dimethoxynaphtho[2,3-c]furan-1(3H)-one] | 35.47 | 5.85 | > 50 |  |
| COc1cc2cc(CO)c(C(=O)Cl)c(-c3cc4c(cc3O)OCO4)c2cc1OC [Example 224, 1-(6-hydroxybenzo[d][1,3]dioxol-5-yl)-3-(hydroxymethyl)-6,7-dimethoxy-2-naphthoyl chloride] | 2.63 | 5.72 | > 50 |  |
| CCN(Cc1ccncc1)c1ccc(-c2c3c(cc4cc(OC)c(OC)cc24)COC3=O)cn1 [Example 226, 9-(6-(ethyl(pyridin-4-ylmethyl)amino)pyridin-3-yl)-6,7-dimethoxynaphtho[2,3-c]furan-1(3H)-one] | 7.47 | 5.17 | > 50 |  |
| CCN(Cc1cccs1)c1ccc(-c2c3c(cc4cc(OC)c(OC)cc24)COC3=O)cn1 [Example 199, 9-(6-(ethyl(thiophen-2-ylmethyl)amino)pyridin-3-yl)-6,7-dimethoxynaphtho[2,3-c]furan-1(3H)-one] | 25.20 | 5.70 | > 50 |  |
| COc1cc2cc3c(c(-c4cnc(N(C)[C@H]5CCc6c(cccc6OC)C5)nc4)c2cc1OC)C(=O)OC3.Cl [Example 96, (S)-6,7-dimethoxy-9-(2-((5-methoxy-1,2,3,4-tetrahydronaphthalen-2-yl)(methyl)amino)pyrimidin-5-yl)naphtho[2,3-c]furan-1(3H)-one hydrochloride] | 27.11 |  | > 50 | 5.74 |
| COc1cc2cc3c(c(-c4ccc(N(C)CC5CCCO5)nc4)c2cc1OC)C(=O)OC3 (stereo not drawn) [Example 192, 6,7-dimethoxy-9-(6-(methyl((tetrahydrofuran-2-yl)methyl)amino)pyridin-3-yl)naphtho[2,3-c]furan-1(3H)-one] | 10.08 | 5.30 | > 50 |  |
| COc1cc2cc3c(c(-c4ccc(N(C)Cc5cccs5)nc4)c2cc1OC)C(=O)OC3 [Example 198, 6,7-dimethoxy-9-(6-(methyl(thiophen-2-ylmethyl)amino)pyridin-3-yl)naphtho[2,3-c]furan-1(3H)-one] | 48.47 | 5.99 | > 50 |  |
